The record followed here is patent publication US20120135089A1, “E3 LIGASE INHIBITORS” (priority 2009, published 2012).

Entries after “also recorded” stand apart in the source; their conditions may differ.

The subject of test [1] is wild-type, p53−/− and p53−/−; mdm2−/− MEFs. Nature of the test: Alamar Blue viability assay, mouse embryonic fibroblasts. The class given is cell-based. Conditions: 48 hours. How it is done:
(§1) RKO and RKO-E6 cells were seeded in 384-well plates and treated with a dilution series of MEL23 for 48 hours as indicated. Alamar Blue was added for 16 hours and fluorescence determined on a Victor3 Plate Reader. The median percent inhibition of five replicates was determined and normalized to a no treatment control. One standard deviation is shown. […] Cells were seeded in 384-well plates and treated with a dilution series of MEL23 for 48 hours at the indicated concentrations. Alamar Blue was added for 16 hours and fluorescence determined on a Victor3 Plate Reader. The median percent inhibition of five replicates was determined and normalized to a no treatment control. One standard deviation is shown.
(§2) Cells were seeded in 384-well black clear-bottom plates (Corning Inc., Corning, N.Y., Cat. No. 07-200-655). Cells were then treated with the indicated concentration of compound. Plates were incubated for 48 hours at 37° C. Alamar Blue (Invitrogen, Cat. No. DAL1100) was added to each well to a final concentration of 10% and incubated at 37° C. for 16 hours. Fluorescence intensity was determined using the Victor3 Plate Reader (PerkinElmer). Median percent survival or growth inhibition was calculated and normalized to a no treatment control.
(In general: Alamar Blue is a resazurin reagent that responds to reducing activity.)

The test system of test [2] is RKO and RKO-E6 cells. Nature of the test: Alamar Blue viability assay, RKO and RKO-E6 cells. The class given is cell-based, human. Particulars: 48 hours, dilution series. As to the method: as §1, §2
In test [3] the target is T1, Flag-Mdm2-HA-MdmX complex (Homo sapiens, UniProt O15151+Q00987).
T1 construct: unlike the full-length complex, which was produced through co-expression of Mdm2 and MdmX in SF9 cells; made in house; host or cells: Sf9 insect cells, co-infection; purified on M2-agarose, then HA-agarose
T1 sequence (Q00987 whole entry): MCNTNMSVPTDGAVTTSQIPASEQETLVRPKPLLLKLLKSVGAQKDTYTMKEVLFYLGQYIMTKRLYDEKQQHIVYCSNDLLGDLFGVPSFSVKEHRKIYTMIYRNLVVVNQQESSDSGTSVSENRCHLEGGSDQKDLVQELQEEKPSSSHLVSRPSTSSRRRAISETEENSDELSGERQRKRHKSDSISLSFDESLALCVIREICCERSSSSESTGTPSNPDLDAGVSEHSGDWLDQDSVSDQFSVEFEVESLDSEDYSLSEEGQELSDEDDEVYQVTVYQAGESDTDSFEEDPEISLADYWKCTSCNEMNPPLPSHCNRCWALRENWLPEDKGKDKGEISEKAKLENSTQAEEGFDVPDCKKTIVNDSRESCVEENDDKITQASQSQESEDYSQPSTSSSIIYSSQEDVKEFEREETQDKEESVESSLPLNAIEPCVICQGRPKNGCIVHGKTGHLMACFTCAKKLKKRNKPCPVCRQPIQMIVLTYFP
T1 sequence (O15151 whole entry): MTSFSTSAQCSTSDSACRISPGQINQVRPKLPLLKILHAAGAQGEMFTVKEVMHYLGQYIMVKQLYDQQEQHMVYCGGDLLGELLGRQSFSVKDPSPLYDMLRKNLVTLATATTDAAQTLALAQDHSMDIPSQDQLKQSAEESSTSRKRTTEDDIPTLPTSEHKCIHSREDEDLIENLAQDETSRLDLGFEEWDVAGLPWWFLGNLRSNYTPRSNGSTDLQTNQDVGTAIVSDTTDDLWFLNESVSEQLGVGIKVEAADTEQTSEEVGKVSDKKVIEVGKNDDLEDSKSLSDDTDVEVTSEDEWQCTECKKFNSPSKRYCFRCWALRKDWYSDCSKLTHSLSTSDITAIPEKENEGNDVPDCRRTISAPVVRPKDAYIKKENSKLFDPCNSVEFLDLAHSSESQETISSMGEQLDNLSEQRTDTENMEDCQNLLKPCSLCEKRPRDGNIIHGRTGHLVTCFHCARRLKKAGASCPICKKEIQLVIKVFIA
Nature of the test: in vitro ubiquitination assay, Flag-Mdm2/HA-MdmX complex. The class given is biochemical. How it is done: These assays were performed with 100 ng of full-length Flag-Mdm2 or 200 ng of Flag-Mdm2/HA-MdmX complexes (100 ng of each protein as each are present in a 1:1 ratio, when purified), ^32P-labeled ubiquitin, UbCH5c, and E1. Following a 30-minute incubation at 37° C., reactions were terminated and resolved on a SDS-PAGE gel followed by autoradiography. PC indicates positive control, and NC indicates negative control with UbCH5C eliminated from the reaction. The gels were quantified by phosphoimaging using ImageQuant software (GE Healthcare Bio-Sciences Corp., Piscataway, N.J.). […]
Ubiquitin reactions contain 50 ng E1, 1 μg PK-ubiquitin, 50 ng His-UbCH5C, and 100 ng Flag-Mdm2. […] The products were resolved by SDS-PAGE and analyzed by Western blotting with anti-p53, anti-Mdm2 SMP14, 2A10, 3G5 mix, or anti-MdmX. […] The graph represents the quantification of the Mdm2-ubiquitin species, normalized to the positive control. […]
Full-length Mdm2 in vitro ubiquitination reactions were performed in 15 μl reaction mixtures containing 50 mM TrisHC1 pH 7.5, 5 mM MgCl2, 2 mM NaF, 2 mM ATP, 0.6 mM DTT, 50 ng E1 (Boston Biochem, Cat. No. E-305), 1 μg PK-ubiquitin, 50 ng His-UbCH5C, and 100 ng Flag-Mdm2. […] The products were resolved by SDS-PAGE and analyzed by Western blot with anti-p53, anti-Mdm2 SMP14, 2A10, 3G5 mix, or anti-MdmX antibodies. […]

In test [4] the test system is p53/Mdm2, p53/MdmX or Mdm2/MdmX complex. Nature of the test: co-immunoprecipitation of p53/Mdm2/MdmX complexes in MCF7 cells. The format is cell-based, human. Conditions: 10 μg/ml, 6 hours. As to the method: MCF7 cells were seeded in a 10-cm dish overnight and treated for 6 hours with 10 μg/ml (28 μM) MEL23, 5.3 μg/ml (10 μM) Nutlin-3a or DMSO. […] The experimental conditions of the results shown in FIG. 33B were as follows: FLAG-Mdm2 was transfected into cells and after 24 hours, treated with compounds, and cell lysates were incubated with anti-FLAG M2 antibody for 2 hours, followed by incubation with Protein-A/G sepharose beads for an hour at 4° C. Beads were washed and proteins eluted with 5×SDS and separated on SDS-PAGE.

For test [5], the target named is T2, Mdm2 RING-MdmX RING hetero-complex (Homo sapiens, UniProt O15151+Q00987).
T2 construct: 500 ng GST-Mdm2 (residues 400-491); GST-MdmX (residues 410-490); made in house
T2 sequence (Q00987 400-491): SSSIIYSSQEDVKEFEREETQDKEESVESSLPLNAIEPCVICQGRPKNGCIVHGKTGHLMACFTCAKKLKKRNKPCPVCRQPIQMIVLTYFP
T2 sequence (O15151 410-490): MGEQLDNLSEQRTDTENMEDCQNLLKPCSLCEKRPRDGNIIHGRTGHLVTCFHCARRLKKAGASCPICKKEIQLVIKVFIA
Nature of the test: in vitro ubiquitination assay, Mdm2 RING-MdmX RING. The class given is biochemical. How it is done: These assays were performed with 100 ng of full-length Flag-Mdm2 or 200 ng of Flag-Mdm2/HA-MdmX complexes (100 ng of each protein as each are present in a 1:1 ratio, when purified), ^32P-labeled ubiquitin, UbCH5c, and E1. Following a 30-minute incubation at 37° C., reactions were terminated and resolved on a SDS-PAGE gel followed by autoradiography. PC indicates positive control, and NC indicates negative control with UbCH5C eliminated from the reaction. The gels were quantified by phosphoimaging using ImageQuant software (GE Healthcare Bio-Sciences Corp., Piscataway, N.J.). […] Reactions were performed as in FIG. 11A except 500 ng GST-Mdm2 (residues 400-491) and GST-MdmX (residues 400-490) were used for ubiquitin polymerization. […] Reactions were performed as in FIG. 11A except with 3 μg of the Roc1/Cul1 ligase complex. Ubiquitination activity of the complex was tested in the presence of increasing concentrations of MEL23 and MEL24.
Radiolabeled in vitro ubiquitination assays were carried out in 30 μl reaction mixtures with ^32P-labeled ubiquitin. 500 ng GST-Mdm2 (residues 400-491) and GST-MdmX (residues 410-490) were used for the RING-RING reactions. The products of the reaction were resolved on a SDS-PAGE gel and visualized by autoradiography.

On to `CCCCn1c(=O)[nH]c(O)c(C2NCCc3c2[nH]c2ccccc32)c1=O` (stereo not drawn) [MEL23], for which, in test [1] (dilution series), the “survival of p53−/− MEFs” value was “also decreased” and the “survival of wild-type MEFs” value is reported as “survival of the wild-type cells decreased the greatest”. Besides, the “survival of p53−/− mdm2−/− MEFs” value in test [1] (highest concentration tested) is given as “Only a small decrease in cell survival”. Besides, in test [2], the RKO cell survival entry is listed as “decreased in a dose-dependent manner” and the RKO-E6 cell survival entry was “remained largely unaffected”. In test [3], the “ligase activity of the Mdm2-MdmX complex in vitro” value is recorded as “significantly decreased the overall ligase activity; also recorded: inhibited”. Further, the “activity of the Mdm2-MdmX complex toward p53 in vitro” value in test [3] (Western blot) is “inhibited the activity of the Mdm2-MdmX complex toward p53”. In test [4], the “complex formation (co-immunoprecipitation)” value is “did not inhibit p53-Mdm2 complex formation; also recorded: does not inhibit”. Moreover, the “ubiquitination of the Mdm2 RING-MdmX RING hetero-complex” value in test [5] is on record as “inhibited”.
